Data on eleven molecules can be found in ChEMBL document CHEMBL1201862, “PubChem BioAssay data set” (2004).

Among the test systems are T47D; RPMI-8226; UO-31; LOX IMVI; HCT-15; NCI-H226; DU-145; SF-268; NCI/ADR-RES; SF-295; IGROV-1; A549; MCF7; NCI-H460; PC-3; SK-MEL-5; SW-620; U-251; SN12C; HOP-92.
Holding throughout (assay): DTP human tumour cell line panel, 48 h

Structures are written as SMILES.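 Interpolation was linear, between the two tested concentrations surrounding the appropriate level; five concentrations were tested over 48 hours in 96-well plates. The concentration for 50% growth inhibition is given as GI50.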 Active and inactive are the calls of the source. Cut-off read from the data, not from the text of the source: active = GI50 up to about 1.1 µM and inactive = higher.

One may read the GI50 as the concentration that inhibits growth by half. `CC(=O)CN/C(C)=N/Nc1ccc([N+](=O)[O-])cc1[N+](=O)[O-]`: the GI50 in the test with T47D is > 100 µM (inactive); in the test on RPMI-8226, > 100 µM (inactive); in the test with UO-31, > 100 µM (inactive); in the test on LOX IMVI, > 100 µM (inactive); with HCT-15, above 100 µM; with NCI-H226 it was > 100 µM (inactive). In addition, the GI50 in the test with DU-145, in the test with SF-268, with NCI/ADR-RES, with SF-295, in the test on IGROV-1 and in the test on A549 was > 100 µM (inactive) throughout. Besides, the GI50 in the test with MCF7, with NCI-H460, in the test with PC-3, in the test with SK-MEL-5, with SW-620 and with U-251 was > 100 µM (inactive) each time. Further, the GI50 with SN12C is > 100 µM (inactive).
Regarding `C[N+](C)(C)CCOP(=O)([O-])OCCNC(=O)c1ccc2ccccc2c1`, the GI50 in the test with T47D was > 100 µM (inactive); in the test on RPMI-8226, > 100 µM (inactive); with UO-31, > 100 µM (inactive); with LOX IMVI it was > 100 µM (inactive); in the test on HCT-15, above 100 µM; in the test on NCI-H226, > 100 µM (inactive). The GI50 in the test with DU-145 was > 100 µM (inactive); with SF-268 it was > 100 µM (inactive); with NCI/ADR-RES, 31.5 µM (inactive); in the test with SF-295, > 100 µM (inactive); in the test on IGROV-1, > 100 µM (inactive); with A549 it was > 100 µM (inactive). In addition, the GI50 in the test on MCF7, with PC-3, in the test with SK-MEL-5, in the test on SW-620, in the test on U-251 and in the test on SN12C was > 100 µM (inactive) each time.
On to `COc1cc([N+](=O)[O-])c(S(=O)(=O)[O-])cc1-[n+]1nc(C(=O)Nc2ccccc2)nn1-c1ccc([N+](=O)[O-])c(S(=O)(=O)O)c1`, for which the GI50 is > 100 µM (inactive) in the test with T47D; > 100 µM (inactive) with RPMI-8226; > 100 µM (inactive) in the test with UO-31; above 100 µM in the test on HCT-15; > 100 µM (inactive) in the test on NCI-H226; > 100 µM (inactive) with DU-145. The GI50 in the test on SF-268, with NCI/ADR-RES, with SF-295, in the test with IGROV-1, in the test with A549 and with MCF7 was > 100 µM (inactive) throughout. Also, the GI50 with NCI-H460, in the test with PC-3, in the test with SK-MEL-5, in the test on SW-620, in the test on U-251 and in the test on SN12C was > 100 µM (inactive) each time.
For `Cc1cc(C2(O)C=C(C(C)(C)C)C(=O)C(C(C)(C)C)=C2)c(C)cc1C1(O)C=C(C(C)(C)C)C(=O)C(C(C)(C)C)=C1`, the GI50 is > 100 µM (inactive) with T47D; > 100 µM (inactive) in the test on RPMI-8226; > 100 µM (inactive) in the test with UO-31; > 100 µM (inactive) in the test on LOX IMVI; above 100 µM in the test with HCT-15; > 100 µM (inactive) in the test with NCI-H226. Also, the GI50 in the test with DU-145, with SF-268, with NCI/ADR-RES, in the test on SF-295, in the test with IGROV-1 and with A549 was > 100 µM (inactive) in each case. The GI50 in the test with MCF7, in the test on PC-3, in the test with SK-MEL-5, in the test with SW-620, in the test on U-251 and with SN12C was > 100 µM (inactive) throughout.
As for `C[C@H](CCC(=O)O)[C@H]1CC[C@H]2[C@@H]3CC[C@@H]4C[C@H](O)CC[C@]4(C)[C@H]3C[C@H](O)[C@]12C` [DEOXYCHOLIC ACID], the GI50 in the test on T47D is 31.4 µM (inactive); in the test with RPMI-8226 it was 25.8 µM (inactive); in the test on UO-31 it was 37.6 µM (inactive); with LOX IMVI, 40.8 µM (inactive); with HCT-15 it was 36.1 µM; with NCI-H226 it was 95.1 µM (inactive). Also, the GI50 was 65.6 µM (inactive) in the test with DU-145; 40.1 µM (inactive) in the test with SF-268; 44.5 µM (inactive) with NCI/ADR-RES; 17.8 µM (inactive) with SF-295; 27.9 µM (inactive) in the test with IGROV-1; 35.9 µM (inactive) in the test with A549. Moreover, the GI50 is 36.2 µM (inactive) in the test on MCF7; 40.7 µM (inactive) in the test on NCI-H460; 33.6 µM (inactive) in the test with PC-3; 37.8 µM (inactive) in the test on SK-MEL-5; 47.8 µM (inactive) in the test on SW-620; 30.7 µM (inactive) in the test on U-251. The GI50 with SN12C was 34 µM (inactive).
For `CN(C)c1nncc2[nH]cnc12`, the GI50 was > 100 µM (inactive) in the test with T47D; > 100 µM (inactive) with RPMI-8226; > 100 µM (inactive) in the test on UO-31; above 100 µM with HCT-15; > 100 µM (inactive) with NCI-H226; > 100 µM (inactive) in the test on DU-145. Besides, the GI50 in the test on SF-268, in the test on NCI/ADR-RES, in the test with SF-295, in the test with IGROV-1, with A549 and in the test on MCF7 was > 100 µM (inactive) each time. Further, the GI50 with NCI-H460, in the test on PC-3, in the test with SK-MEL-5, in the test on SW-620, in the test on U-251 and in the test with SN12C was > 100 µM (inactive) each time.
With `O=C1c2cccnc2C(=O)c2c1nc1ccccc1c2-c1cncc(-c2c3c(nc4ccccc24)C(=O)c2cccnc2C3=O)c1`, the concentration for 50% growth inhibition (GI50) in the test with T47D is 0.439 µM (active); with RPMI-8226, 0.141 µM (active); with UO-31, 0.244 µM (active); in the test with LOX IMVI, 0.139 µM (active); in the test on HCT-15 it was 0.0251 µM; in the test on NCI-H226 it was 0.163 µM (active). For the same molecule, the GI50 with DU-145 was 0.165 µM (active); in the test with SF-268 it was 0.159 µM (active); with NCI/ADR-RES, 0.253 µM (active); in the test on SF-295, 0.614 µM (active); in the test on IGROV-1, < 0.0144 µM (active); with A549 it was 0.37 µM (active). Also, the 50% growth inhibitory concentration (GI50) was 0.157 µM (active) in the test with MCF7; 0.19 µM (active) with NCI-H460; 0.303 µM (active) in the test with PC-3; 0.0568 µM (active) in the test on SK-MEL-5; 0.041 µM (active) with SW-620; 0.146 µM (active) with U-251. Further, the concentration for 50% growth inhibition (GI50) in the test with SN12C is 0.126 µM (active).
As to `CC[C@]1(Cc2ccc(OC)c(OC)c2)[C@@H]2C[C@@H](C3OCCO3)ON2O[C@H](OC2CCCC2(c2ccccc2)c2ccccc2)[C@@H]1OC(C)=O` (some centres not stated), the GI50 is 18.7 µM (inactive) in the test on T47D; 20.6 µM (inactive) with UO-31; 23.3 µM (inactive) with LOX IMVI; 14.5 µM with HCT-15; 20.6 µM (inactive) in the test with NCI-H226; 26.6 µM (inactive) in the test with DU-145. In addition, the GI50 in the test on SF-268 was 19.9 µM (inactive); in the test with NCI/ADR-RES, 28.9 µM (inactive); with SF-295 it was 21.2 µM (inactive); in the test on IGROV-1, 23.3 µM (inactive); in the test on A549, 24 µM (inactive); in the test with MCF7 it was 22.5 µM (inactive). In addition, the GI50 in the test with NCI-H460 was 16.1 µM (inactive); in the test with PC-3, 24.4 µM (inactive); with SK-MEL-5, 18.5 µM (inactive); in the test with SW-620 it was 33 µM (inactive); with U-251, 33.2 µM (inactive); in the test on SN12C it was 31.3 µM (inactive).
In the case of `Fc1ccc(NCn2nc(COc3ccccc3Cl)n(/N=C/c3ccc(-c4ccc(Cl)cc4Cl)o3)c2=S)cc1Cl`, the GI50 was 27.7 µM (inactive) with T47D; 22.3 µM (inactive) in the test on RPMI-8226; 32.9 µM (inactive) in the test with UO-31; 23.9 µM (inactive) in the test on LOX IMVI; 26.7 µM in the test on HCT-15; 83.8 µM (inactive) in the test with NCI-H226. Further, the GI50 in the test with DU-145 is 47.6 µM (inactive); in the test on SF-268 it was 79.1 µM (inactive); in the test on NCI/ADR-RES it was 43.5 µM (inactive); in the test on SF-295, 33 µM (inactive); in the test with IGROV-1 it was 29.2 µM (inactive); with MCF7, 26.7 µM (inactive). The GI50 in the test with NCI-H460 was 32.7 µM (inactive); in the test with PC-3, 38.5 µM (inactive); in the test with SK-MEL-5, 7.62 µM (inactive); with SW-620 it was 36.1 µM (inactive); in the test on U-251, 25.8 µM (inactive).
Turning to `Cn1c(=O)c2c(-c3ccccc3)onc2n(C)c1=O`, the GI50 with T47D was 23.8 µM (inactive); in the test on RPMI-8226, 15 µM (inactive); in the test on UO-31, 19.5 µM (inactive); in the test with LOX IMVI it was 21.2 µM (inactive); in the test with HCT-15, 21.1 µM; in the test on NCI-H226, > 100 µM (inactive). The GI50 in the test with SF-268 is 35.2 µM (inactive); with NCI/ADR-RES, 27.5 µM (inactive); with SF-295, 40.7 µM (inactive); with IGROV-1, 20.3 µM (inactive); with A549 it was 21.3 µM (inactive); with MCF7, 12.9 µM (inactive). Further, the GI50 with NCI-H460 was 35.9 µM (inactive); in the test with PC-3, 15 µM (inactive); with SK-MEL-5, 30.7 µM (inactive); with SW-620, 26.6 µM (inactive); with U-251, 28.1 µM (inactive); in the test with SN12C, 30.4 µM (inactive). In addition, in the test with HOP-92, the GI50 was 42 µM (inactive).
On to `CCc1cccc(C(C)C)c1NC(=O)C(=O)Nn1c(S)nc2ccccc2c1=O`, for which the GI50 in the test with T47D is > 100 µM (inactive); in the test with RPMI-8226 it was > 100 µM (inactive); with UO-31, > 100 µM (inactive); in the test with LOX IMVI, > 100 µM (inactive); in the test with HCT-15 it was above 100 µM; with NCI-H226, > 100 µM (inactive). In addition, the GI50 in the test on SF-268 was > 100 µM (inactive); in the test with NCI/ADR-RES, 47.8 µM (inactive); in the test with SF-295 it was > 100 µM (inactive); in the test on IGROV-1 it was 59.4 µM (inactive); in the test on A549, > 100 µM (inactive); with MCF7, > 100 µM (inactive). For the same molecule, the GI50 in the test on NCI-H460, with PC-3, in the test with SK-MEL-5, with SW-620, with U-251 and with SN12C was > 100 µM (inactive) throughout. Moreover, the GI50 in the test with HOP-92 was > 100 µM (inactive).
